Laboratory results taken from patent US9918991B2, “Topical antimicrobial compositions and methods of using same” (Hydromer, Inc., priority 2010, dated 2018).

Legend:
bacteria [1] = assay: Bacteria growth inhibition on the hoof (Test Method MCR 3.0 with actual hoof material); assay type: cell-based; conditions: aqueous solution 0.25 to 0.5%
From the text: (§1) Comparative Antimicrobial Testing of Example 4 with Cosmetic Dyes According to Test Method MCR 3.0 with Actual Hoof Material

fungi = assay: Fungi growth inhibition on the hoof (Test Method MCR 3.0 with actual hoof material); assay type: cell-based; conditions: aqueous solution 0.25 to 0.5%
From the text: as §1

T. mentagrophytes = assay: Hoof samples submerged, washed to simulate leaching, overlaid with T. mentagrophytes agar; assay type: cell-based; conditions: 10 wt. % solution; hoof submerged 15 seconds, washed two hours, 3 and 6 days
Procedure: (§2) Hoof samples were submerged for 15 seconds in (1) the composition of the invention (i.e., 4:1 of cosmetic dye:Phenoxyethanol, total amount about 0.3 wt. %); (2.1) a 10 wt. % copper sulfate (2.2) a 10 wt. % zinc sulfate solution; (3) untreated as a control. The samples were then washed for two hours to simulate leaching. The samples were then placed into melted PA agar to solidify. Melted agar containing 10E5 CFU/ml of T. mentagrophytes was then added and incubated at room temperature for 3 and 6 days.
as §2, with “antimicrobial” for “cosmetic”, “about 0.21 wt. % or” for “about”, “(2)” for “(2.1)”, “or” for “(2.2) a”, “solution; or” for “solution;”

[2] = Influence of hoof bath contamination by dirt and manure on effectiveness
[3] = tested on: Arcanobacterium pyogenes (ATCC#9731 and ATCC#19411); assay: MIC Test against Arcanobacterium pyogenes under anaerobic conditions (TOXIKON); assay type: cell-based
Procedure: MIC Test of example 4 against Arcanobacterium pyogenes (ATCC#9731 and ATCC#19411) under anaerobic conditions were conducted by the TOXIKON.
Under the same conditions as mentioned in Example 5 conducted by TOXIKON the MIC of a 10% copper sulfate solution (commonly used in hoof baths worldwide) was determined.

bacteria [4] = assay: Growth / inhibition activity on a hoof surface; assay type: cell-based; conditions: 0.2% alone
[5] = tested on: digital dermatitis lesion (DDL); assay: Footbath study in a large commercial dairy farm, digital dermatitis lesions; assay type: in vivo, cows; conditions: study 1; 5% solution, twice weekly; mixed logistic regression
Procedure: The study was conducted in a large commercial dairy farm. […] The adjusted odds of digital dermatitis lesion (DDL) throughout the study period were analyzed by mixed logistic regression model.

Molecule: CN(C)c1ccc2nc3ccc(=[N+](C)C)cc-3sc2c1 [Methylene Blue]
- bacteria growth inhibition on the hoof (bacteria [1]): 60%
- fungi growth inhibition on the hoof (fungi): 50%

Molecule: CN(C)c1ccc(C(=C2C=CC(=[N+](C)C)C=C2)c2ccc(N(C)C)cc2)cc1.[Cl-] [Gentian Violet, N-[4[Bis[4-(dimethylamino)-phenyl]methylene]-2,5-cyclohexadien-1-ylidene]-N-methyl-methanaminium chloride]
- bacteria growth inhibition on the hoof (bacteria [1]): 90%
- fungi growth inhibition on the hoof (fungi): 80%

Molecule: O=S(=O)([O-])[O-].[Zn+2] [zinc sulfate]
- microbial growth (T. mentagrophytes): intense microbial growth

Molecule: benzalkonium chloride
- loses effectiveness after contamination ([2]; at 1% concentration, FIG. 4): ≤ 24 h

Molecule: O=S(=O)([O-])[O-].[Cu+2] [copper sulfate]
- loses effectiveness after contamination ([2]; at 2.5% and 5% concentrations, FIG. 1): ≤ 4 h
- microbial growth (T. mentagrophytes): intense microbial growth
- MIC (concentration giving about 100% reduction / kill) ([3]; anaerobic conditions, both strains): at least 0.078%
- kill rate ([3]; concentration at least 0.078%, both strains): ~100%
- required concentration in comparison to a solution according to example 4 ([3]; to control Arcanobacterium pyogenes): at least 8 times

Molecule: Cc1cc2nc3ccc(N(C)C)cc3[s+]c2cc1N.[Cl-] [Toluidine Blue]
- growth on a hoof surface (bacteria [4]): bacterial growth
- bacteria growth inhibition on the hoof (bacteria [1]): 80%
- fungi growth inhibition on the hoof (fungi): 50%

Molecule: C=O [formalin]
- odds of DDL compared with the Dragonhyde group [5]: 1.36 times higher

Molecule: O=CCCCC=O [glutaraldehyde]
- loses effectiveness after contamination ([2]; at 2% concentration, FIG. 3): ≤ 24 h
